Experimental data reported in ChEMBL document CHEMBL1129123, “Drupangtonine, a novel antileukemic alkaloid from Cephalotaxus harringtonia var. drupacea” (Bioorg Med Chem Lett, 1996).
≈ marks a conversion by molar mass, not a printed value.

Test system: P388
Test: Antileukemic activity against P-388 leukemia cells.
Assay type: functional, cell-based
Settings: Mus musculus

Row | Compound | IC50 [µg/mL]
1 | COC(=O)C[C@](O)(CCC(C)C)C(=O)O[C@H]1[C@H]2c3cc4c(cc3[C@H]3CN5CCC[C@]25C[C@]1(OC)O3)OCO4 | 0.007 (≈ 0.0132 µM)
2 | COC(=O)C[C@](O)(CCC(C)C)C(=O)O[C@@H]1C(OC)=CC23CCCN2CCc2cc4c(cc2[C@H]13)OCO4 (single isomer, unassigned) [DEOXYHARRINGTONINE] | 0.0075 (≈ 0.0145 µM)
3 | COC(=O)C[C@](O)(CCC(C)(C)O)C(=O)O[C@@H]1C(OC)=CC23CCCN2CCc2cc4c(cc2[C@H]13)OCO4 (single isomer, unassigned) [HARRINGTONINE] | 0.032 (≈ 0.0602 µM)
4 | COC(=O)C[C@](O)(CCCC(C)(C)O)C(=O)O[C@@H]1C(OC)=CC23CCCN2CCc2cc4c(cc2[C@H]13)OCO4 (single isomer, unassigned) [OMACETAXINE MEPESUCCINATE] | 0.017 (≈ 0.0312 µM)
